Data as given in patent US10889834B2, “Methods and compositions for enhancing targeted transgene integration” (Sangamo BioSciences, Inc., priority 2014, dated 2021).

System: Hepa1-6 cells
Assay: Factor IX production by ELISA in Hepa1-6 cells treated with topoisomerase inhibitor and FIX donor AAV (integration at albumin locus)
Type: cell-based, mouse
Conditions: 0.5-5 uM inhibitor, FIX measured at days 4 and 7
Procedure: For instance, one-hundred thousand Hepa1-6 cells were seeded per well of a 24-well dish and grown until 70% confluent in DMEM+10% FBS. […] Cells were then transfected with one of two Factor IX (FIX)-containing adeno-associated viruses (AAVs) donors (e.g., AAV2/6 vectors at 6e10 vg per sample) and Factor IX production on days 0-4 (day 4) and days 5-7 (day 7) assayed by ELISA.
The FIX donor AAVs contain homology arms (complementary to the 3′ end of the mouse albumin gene) flanking an albumin 3′ intron splice acceptor-albumin 3′ exon-2A-Factor IX cassette. In one instance, the Factor IX cassette was positioned in the forward orientation (F), allowing Factor IX to be produced if the DNA was integrated into the Albumin locus through HDR by the use of the homology arms.
Therefore, we determined the stimulation of Factor IX integration/expression that is specific to integration at the albumin gene in the proper orientation; this number is roughly equal to the Factor IX produced from the forward-orientation virus minus the Factor IX produced by the reverse-orientation virus.

CC[C@@]1(O)C(=O)OCc2c1cc1n(c2=O)Cc2cc3ccccc3nc2-1 [camptothecin]
FIX protein (forward-orientation AAV donor) (human FIX AAV donor in forward (F) orientation): dose-dependent increase in FIX protein
FIX protein (reverse-orientation AAV donor) (human FIX AAV donor in reverse (R) orientation): generally not
